Laboratory results from publication PMC10468942, “A Fluorescent Probe as a Lead Compound for a Selective α-Synuclein PET Tracer: Development of a Library of 2-Styrylbenzothiazoles and Biological Evaluation of [^18F]PFSB and [^18F]MFSB” (ACS Omega, 2023).
Where “and” joins values, the source holds several entries; their conditions need not be identical. Equal values may be shown once.

How the values were obtained:
[1] = system: αSYN pathology in human brain slices (MSA, PD, AD, control); assay: In vitro autoradiography on human brain slices; assay type: binding; conditions: 10 nM tracer; for AD/frontal cortex SB ratio: AD sample vs frontal cortex control
Protocol: Post-mortem human brain slices (10 μm thickness) were obtained from the subject cases and were analyzed by the Neurobiobank München (NBM, Munich, Germany), where tissues were collected on the basis of written informed consent according to the guidelines of the ethics committee of the Ludwig Maximilians University of Munich, Germany (# 345-13). The use of brain tissue samples in this study was approved by the ethics committee of the Faculty of Medicine at the University of Tuebingen (Ethics approval number: 813/2018BO2). Table S4 (Supporting Information) summarizes the information of the subjects from which samples were obtained and used in the experiment.
For autoradiography, frozen brain slices were thawed for 1 h before preincubation in bovine serum albumin (BSA) buffer for 25 min at room temperature. To determine total binding (TB), brain slices were incubated with the tracer (10 nM [^18F]PFSB, 10 nM [^18F]MFSB). Incubation of consecutive slices with the corresponding nonradioactive compounds (10 μM PFSB, 10 μM MFSB) was performed to determine nonspecific binding (NSB). The nonradioactive compounds were prepared by dissolving in DMSO to 10 mM, which yielded a DMSO concentration of ≤0.1% in the final solution. Incubation was carried out for 1 hour at room temperature with subsequent washing in cold BSA buffer (3 × 10 min) followed by three dippings in cold deionized water. After drying under an IR lamp, brain slices were exposed to a storage phosphor screen (Molecular Dynamics, Caesarea, Israel) for 18 h, which was then scanned in a phosphor imager (STORM 840, Molecular Dynamics, Sunnyvale, CA).
Quantitative data analysis was performed by drawing four regions of interest (ROIs) in relevant areas of the slice and one ROI next to it for background subtraction (Figures S7 and S8; ImageJ 1.8.0_172, National Institute of Health, Bethesda, MD).[28] Specific binding (SB) is obtained by subtracting NSB from TB. The SB disease/SB control ratio was calculated by dividing by the SB in diseased tissues with the respective SB in control tissues.

[2] = target: T1, αSYN fibrils (Homo sapiens, UniProt P37840); assay: [^3H]MODAG-001 competition binding assay on αSYN fibrils; conditions: for Ki: n = 2, single determinations
T1 construct: cloning of the DNA construct encoding full-length αSYN into the pET-22b vector; made in house; host or cells: Escherichia coli BL21
Protocol: Following the cloning of the DNA construct encoding full-length αSYN into the pET-22b vector and its transformation into BL21 cells, the expression of human αSYN from a prokaryotic host was induced overnight in Escherichia coli at 20 °C with 0.5 mM IPTG. The cells were harvested by centrifugation, resuspended in 20 mM Tris-HCl pH 7.6, 25 mM NaCl and 1× complete protease inhibitor (Roche, Basel, Switzerland), and lysed by sonication. Additionally, they were boiled for 15 min and centrifuged at 12 000g for 30 min. Anion exchange chromatography (HiTrap Q, GE Healthcare, Chicago, Illinois) was used to trap the produced αSYN, which was eluted with NaCl 0.1 M over 20 column volumes. Fractions containing αSYN were concentrated and further purified through a Superdex 75 SEC column equilibrated with PBS. Additional purification was conducted via a high-capacity endotoxin removal spin column (Pierce, Waltham, Massachusetts), affording an endotoxin level below 1.0 EU/mg. The monomeric state and monodispersity of pure αSYN were confirmed by dynamic light scattering and fibrillation was performed according to the protocol from Makky et al.[26] A 4 mg/mL solution of αSYN in 20 mM K3PO4 pH 9.1 was placed in an orbital shaker at 37 °C, 1000 rpm for 5 days to prepare P91s. The assemblies were either sonicated with cycles of 20 s on and 10 s off at 50% amplitude (Q800R3, Qsonica) for a total of 10 min or directly aliquoted in volumes of 10 μL each stored at −80 °C until use. The method for Aβ1-42 fibrils generation was adapted from Bagchi et al. and described in Kuebler et al.[17],[27] […]
Plates were incubated on a shaker (MaxQ 6000, Thermo Fisher Scientific, Inc., Marietta, OH) at 50 rpm for 2 h at 37 °C, covered by removable sealing tapes (PerkinElmer, Waltham, MA). Vacuum filtration and read-out were performed as previously reported.[17] […]

[3] = target: T2, Aβ1-42 fibrils (Homo sapiens, UniProt P05067); assay: [^3H]PiB competition binding assay on Aβ fibrils; conditions: for competition with [^3H]PiB / binding to Aβ fibrils (in words): Aβ1–42 fibrils
T2 construct: Synthetic lyophilized human Aβ1-42 peptide; purchased EMC Microcollections, Tuebingen, Germany; host or cells: synthetic peptide
T2 sequence (P05067 672-713 limits assumed): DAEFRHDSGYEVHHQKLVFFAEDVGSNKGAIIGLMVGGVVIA
Protocol: Following the cloning of the DNA construct encoding full-length αSYN into the pET-22b vector and its transformation into BL21 cells, the expression of human αSYN from a prokaryotic host was induced overnight in Escherichia coli at 20 °C with 0.5 mM IPTG. The cells were harvested by centrifugation, resuspended in 20 mM Tris-HCl pH 7.6, 25 mM NaCl and 1× complete protease inhibitor (Roche, Basel, Switzerland), and lysed by sonication. […] Anion exchange chromatography (HiTrap Q, GE Healthcare, Chicago, Illinois) was used to trap the produced αSYN, which was eluted with NaCl 0.1 M over 20 column volumes. Fractions containing αSYN were concentrated and further purified through a Superdex 75 SEC column equilibrated with PBS. […] A 4 mg/mL solution of αSYN in 20 mM K3PO4 pH 9.1 was placed in an orbital shaker at 37 °C, 1000 rpm for 5 days to prepare P91s. The assemblies were either sonicated with cycles of 20 s on and 10 s off at 50% amplitude (Q800R3, Qsonica) for a total of 10 min or directly aliquoted in volumes of 10 μL each stored at −80 °C until use. The method for Aβ1-42 fibrils generation was adapted from Bagchi et al. and described in Kuebler et al.[17],[27] […] Aggregation was induced by incubation in an Eppendorf Thermomixer at 37 °C with shaking at 800 rpm for 72 h. The resulting fibrils were sonicated for 3 min in a water bath (Elmasonic S 60 H, Elma Schmidbauer GmbH, Singen, Germany). The final products were aliquoted, frozen on dry ice, and stored at −80 °C until use.
(§1) Concentrations of αSYN and Aβ1-42 fibrils were as described above.
(§2) Plates were incubated on a shaker (MaxQ 6000, Thermo Fisher Scientific, Inc., Marietta, OH) at 50 rpm for 2 h at 37 °C, covered by removable sealing tapes (PerkinElmer, Waltham, MA). Vacuum filtration and read-out were performed as previously reported.[17] […] Data points were fitted using nonlinear regression analysis in GraphPad Prism (GraphPad Software, Inc., Version 8.4.0, La Jolla).

[4] = target: T1, αSYN fibrils; assay: [^3H]PiB competition binding assay on αSYN fibrils
Protocol: Following the cloning of the DNA construct encoding full-length αSYN into the pET-22b vector and its transformation into BL21 cells, the expression of human αSYN from a prokaryotic host was induced overnight in Escherichia coli at 20 °C with 0.5 mM IPTG. The cells were harvested by centrifugation, resuspended in 20 mM Tris-HCl pH 7.6, 25 mM NaCl and 1× complete protease inhibitor (Roche, Basel, Switzerland), and lysed by sonication. […] Anion exchange chromatography (HiTrap Q, GE Healthcare, Chicago, Illinois) was used to trap the produced αSYN, which was eluted with NaCl 0.1 M over 20 column volumes. Fractions containing αSYN were concentrated and further purified through a Superdex 75 SEC column equilibrated with PBS. […] A 4 mg/mL solution of αSYN in 20 mM K3PO4 pH 9.1 was placed in an orbital shaker at 37 °C, 1000 rpm for 5 days to prepare P91s. The assemblies were either sonicated with cycles of 20 s on and 10 s off at 50% amplitude (Q800R3, Qsonica) for a total of 10 min or directly aliquoted in volumes of 10 μL each stored at −80 °C until use. […] The final products were aliquoted, frozen on dry ice, and stored at −80 °C until use.
as §1, §2

[5] = In vivo dynamic PET/MR imaging in healthy wild-type mice; parameters: species or system C57BL/6J mice
Protocol: The animal experiments were performed in compliance with the European directives on the protection and use of laboratory animals (Council Directive 2010/63/UE) and the German animal welfare act with approval from the local authorities (Regierungspräsidium Tuebingen, R3/19G). Healthy wild-type female C57BL/6J mice (20.3 ± 0.9 g; 9 weeks old) purchased from Charles River Laboratories (Sulzbach, Germany) were maintained in our vivarium on a 12:12 hour light–dark cycle, and were kept at a temperature of 22 °C with 40–60% humidity and free access to a standard diet and tap water.
The mice (n = 3) were anesthetized with 1.5% isoflurane evaporated in 100% oxygen at a flow rate of 0.8 L/min. A body temperature of 37 °C was maintained using a feedback temperature control unit. PET imaging studies were performed on Inveon dedicated microPET system (Inveon D-PET, Siemens, Knoxville, TN). Five seconds after the start of PET acquisition, the mice were injected intravenously with 9.9 ± 0.6 MBq of [^18F]MFSB (Am = 46.2 ± 2.5 GBq/μmol at the time of injection). The 1 h dynamic acquisitions were divided into 39 time frames (12 × 5 s, 6 × 10 s, 6 × 30 s, 5 × 60 s, and 10 × 300 s). A 13-min transmission measurement with a cobalt-57 point source was performed for attenuation correction. Subsequently, an anatomical MR scan with a 7 Tesla MR scanner (ClinScan, Bruker BioSpin MRI GmbH, Ettlingen, Germany) using a rat whole-body volume coil and the Paravision software (v6.0.1, Bruker, Ettlingen, Germany) using a T2-weighted Turbo-RARE MRI sequence.
The PET image was reconstructed via the OSEM3D/SP-MAP reconstruction algorithm and coregistered to the whole-body MRI scan. Volumes of interest (VOIs) were hand-drawn for the relevant organs based on the MR anatomy in PMOD (PMOD Technologies, Faellanden, Switzerland, Version 4.2) and VOIs at different regions in the mouse brain were extracted using the atlas provided by PMOD to calculate the respective time–activity curves (TACs). Standardized uptake values (SUVs) were calculated as a ratio of the detected activity with injected activity and weight (SUV = (TAC (kBq/cc)/inj. activity (kBq)) × weight (g)).

[6] = Ki, αSYN [^3H]PiB competition, mean Ki ± SEM, n = 3, or single determinations
[7] = nonmethylated compounds, Table 1, two values in a cell = single determinations, a: mean Ki ± SEM of three data points, b: single data point, read-out: Ki
[8] = mice n = 3, i.v., 60 min dynamic PET

[18F]c1ccc2nc(/C=C/c3ccc(N4CCCCC4)cc3)sc2c1 [[^18F]PFSB]
AD/frontal cortex SB ratio [1]: 1.06 | specific binding signal intensity ratio MSA / control of the same brain area ([1]; MSA patient slices vs control, n = 1): 3.7 and 4.2

Fc1ccc2nc(C=Cc3ccc(N4CCOCC4)cc3)sc2c1 [compound 45, 4-(4-(2-(6-Fluorobenzo[d]thiazol-2-yl)vinyl)phenyl)morpholine]
fold lower Ki than PFSB ([2]; [^3H]MODAG-001 competition): 4.6 fold | Ki [2]: 0.0203 µM and 0.0412 µM | αSYN/Aβ selectivity (in words) ([3]; [^3H]PiB competition on αSYN and Aβ fibrils): remained unchanged | Ki [4, 6]: 0.0103 ± 0.0047 µM | factor of affinity improvement compared to PFSB ([4]; [^3H]PiB competition, Ki-MFSB vs Ki-PFSB): 2.5

C(C=Cc1nc2ccccc2s1)=Cc1ccc(N2CCCCC2)cc1 [14a, 2-(4-(4-(Piperidin-1-yl)phenyl)buta-1,3-dien-1-yl)benzo[d]thiazole]
competition with [^3H]PiB / binding to Aβ fibrils (in words) [3]: None of the tested compounds appreciably competed against [^3H]PiB | Ki [4, 7]: 0.0819 ± 0.0156 µM

Fc1ccc2nc(C=CC=Cc3ccc(N4CCCCC4)cc3)sc2c1 [compound 43, 6-Fluoro-2-(4-(4-(piperidin-1-yl)phenyl)buta-1,3-dien-1-yl)benzo[d]thiazole]
competition with [^3H]PiB / binding to Aβ fibrils (in words) [3]: remained low | Ki [4, 6]: 0.213 ± 0.121 µM | fold reduction of affinity compared to 14a ([4]; [^3H]PiB competition): ~3 fold

[18F]c1ccc2nc(/C=C/c3ccc(N4CCOCC4)cc3)sc2c1 [[^18F]MFSB]
SUV, TAC peak value, blood [5, 8]: 6.94 ± 0.71 | SUV, TAC peak value, brain [5, 8]: 1.79 ± 0.02 | SUV, TAC peak value, kidney [5, 8]: 2.70 ± 0.27 | SUV, TAC peak value, liver [5, 8]: 5.00 ± 0.35 | SUV, TAC peak value, lung [5, 8]: 4.43 ± 0.33 | SUV, TAC peak value, bone ([5]; mice n = 3, i.v., at 60 min): 1.52 ± 0.20 | SUV peak in the cerebellum ([5]; mice, PET): up to 1.76 | SUV peak in the frontal cortex ([5]; mice, PET): up to 1.58 | SUVbrain/SUVblood ([5]; mice, PET): 2.7 | Time to peak, bone ([5]; mice, PET TAC): 60 min | Time to peak, brain ([5]; mice, PET TAC): 25 min | Time to peak, kidney ([5]; mice, PET TAC): 110 s | Time to peak, liver ([5]; mice, PET TAC): 90 s | Time to peak, lung ([5]; mice, PET TAC): 15 s | AUC, brain ([5]; mice, PET TAC over 60 min): 98.13 ± 1.30 | AUC, kidney ([5]; mice, PET TAC over 60 min): 102.27 ± 1.33 | AUC, liver ([5]; mice, PET TAC over 60 min): 188.40 ± 6.15 | AUC, lung ([5]; mice, PET TAC over 60 min): 51.22 ± 3.94 | AD/frontal cortex SB ratio [1]: remained favorable

Fc1ccc2nc(C=Cc3ccc(N4CCCCC4)cc3)sc2c1 [9a, 6-Fluoro-2-(4-(piperidin-1-yl)styryl)benzo[d]thiazole]
Ki [2]: 0.125 µM and 0.159 µM | competition with [^3H]PiB / binding to Aβ fibrils (in words) [3]: None of the tested compounds appreciably competed against [^3H]PiB | Ki [4, 7]: 0.0254 ± 0.0023 µM
